Where two headings read alike, the source gives them in different places. No end group written: not given here.
Tests used:
[1] = test system: Bordatella bronchiseptica (Bb); assay type: cell-based
Protocol: (§1) The following strains were assessed vs. Staphylococcus epidermidis (Se), Pseudomonas aeruginosa (Pa), Streptococcus dysgalactiae (Sd), Pasteurella multocida (Pm), Streptococcus agalactiae (Sa), Streptococcus uberis (Su), Streptococcus suis (Ss), Mannheimia haemolytica (Mh), Bordatella bronchiseptica (Bb), Histophilus somnus (Hs), and Staphylococcus pseudintermedius (Sp) (Table 18) for Minimal Inhibitory Concentrations (MIC). Italics=excellent activity (less than or equal to 4 μg/ml).

[2] = test system: Histophilus somnus (Hs); assay type: cell-based
Protocol: as §1

[3] = test system: Mannheimia haemolytica (Mh); assay type: cell-based
Protocol: as §1

[4] = test system: Pasteurella multocida (Pm); assay type: cell-based
Protocol: as §1

[5] = test system: Pseudomonas aeruginosa (Pa); assay type: cell-based
Protocol: as §1

[6] = test system: Staphylococcus epidermidis (Se); assay type: cell-based
Protocol: as §1

[7] = test system: Staphylococcus pseudintermedius (Sp); assay type: cell-based
Protocol: as §1

[8] = test system: Streptococcus agalactiae (Sa); assay type: cell-based
Protocol: as §1

[9] = test system: Streptococcus dysgalactiae (Sd); assay type: cell-based
Protocol: as §1

[10] = test system: Streptococcus suis (Ss); assay type: cell-based
Protocol: as §1

[11] = test system: Streptococcus uberis (Su); assay type: cell-based
Protocol: as §1

[12] = test system: E. coli (Ec); assay type: cell-based
[13] = test system: S. aureus (Sau); assay type: cell-based
[14] = test system: Bordatella bronchiseptica (Bb); assay type: cell-based; remark: listed apart in the source
Protocol: (§2) The same strains as in Table 18 were assessed for Minimal Biofilm Inhibitory Concentrations (MBIC) (Table 19). Italics=excellent activity (less than or equal to 4 μg/ml). ND=Not determined. Peptides 3013, 3015 and 3016 inhibited biofilm growth in the largest number of bacterial strains (5, 5 and 6 out of 13 strains, respectively).

[15] = test system: Histophilus somnus (Hs); assay type: cell-based; remark: listed apart in the source
Protocol: as §2

[16] = test system: Pasteurella multocida (Pm); assay type: cell-based; remark: listed apart in the source
Protocol: as §2

[17] = test system: Pseudomonas aeruginosa (Pa); assay type: cell-based; remark: listed apart in the source
Protocol: as §2

[18] = test system: Staphylococcus epidermidis (Se); assay type: cell-based; remark: listed apart in the source
Protocol: as §2

[19] = test system: Staphylococcus pseudintermedius (Sp); assay type: cell-based; remark: listed apart in the source
Protocol: as §2

[20] = test system: Streptococcus agalactiae (Sa); assay type: cell-based; remark: listed apart in the source
Protocol: as §2

[21] = test system: Streptococcus dysgalactiae (Sd); assay type: cell-based; remark: listed apart in the source
Protocol: as §2

[22] = test system: Streptococcus suis (Ss); assay type: cell-based; remark: listed apart in the source
Protocol: as §2

[23] = test system: Streptococcus uberis (Su); assay type: cell-based; remark: listed apart in the source
Protocol: as §2

[24] = test system: E. coli (Ec); assay type: cell-based; remark: listed apart in the source
Protocol: as §2
(§3) In addition, several peptides expressed preferential activity vs. biofilms (MBIC) cf. planktonic cells (MIC) (Table 20).

[25] = test system: S. aureus (Sau); assay type: cell-based; remark: listed apart in the source
Protocol: as §2, §3

[26] = test system: planktonic methicillin resistant S. aureus; assay: microbe, parasite or virus in culture; assay type: cell-based, Staphylococcus aureus
[27] = test system: PBMCs; assay: Cytotoxicity towards PBMCs, lactate dehydrogenase (LDH) release assay (Tables 6, 7); details: SPOT synthesized peptide ~25 μM, PBMCs from 3 human donors; Table 6
[28] = test system: Mannheimia haemolytica (Mh); assay type: cell-based; remark: listed apart in the source
Protocol: as §2

[29] = planktonic methicillin resistant
[30] = planktonic methicillin resistant S. aureus, broth microdilution in Mueller Hinton Broth (MHB), mean of three biological replicates
[31] = planktonic methicillin resistant S. aureus, broth microdilution in Tryptic Soy Broth (TSB) supplemented with 1% glucose, mean of three biological replicates

Substance	MIC Bb [1] [µg/mL]	MIC Hs [2] [µg/mL]	MIC Mh [3] [µg/mL]	MIC Pm [4] [µg/mL]	MIC Pa [5] [µg/mL]	MIC Se [6] [µg/mL]	MIC Sp [7] [µg/mL]	MIC Sa [8] [µg/mL]	MIC Sd [9] [µg/mL]	MIC Ss [10] [µg/mL]	MIC Su [11] [µg/mL]	MIC E. coli ([12]; Ec) [µg/mL]	MIC Ec ([12]; Ec) [µg/mL]	MIC S. aureus ([13]; Sau) [µg/mL]	MIC Sau ([13]; Sau) [µg/mL]	MBIC E. coli ([24]; Ec) [µg/mL]	MBIC S. aureus ([25]; Sau) [µg/mL]	MIC (μM) MHB [26, 29] [µM]	MIC (μM) TSB with 1% Glucose [26, 29] [µM]	% Toxicity (LDH Release) [27] [%]	further results
AVAKWALKLWKQ-NH2 [Peptide 3009, AVAKWALKLWKQ]	>64	64	>64	>64	>64	>64	4	>64	32	>64	32	>64	>64	>64	>64	32	64	>64	>64	−3.2	MBIC [14]: 64 µg/mL; MBIC [15]: 16 µg/mL; MBIC [16]: 16 µg/mL; MBIC [17]: >64 µg/mL; MBIC [18]: >64 µg/mL; MBIC [19]: 8 µg/mL; MBIC [20]: >64 µg/mL; MBIC [21]: 16 µg/mL; MBIC [22]: 16 µg/mL; MBIC [23]: 16 µg/mL; MBIC ([24]; Ec): 32 µg/mL; MBIC ([25]; Sau): 64 µg/mL
AVKWLGWILAKK-NH2 [Peptide 3016, AVKWLGWILAKK]	64	16	>64	>64	>64	>64	8	8	>64	32	16	64	64	>64	>64	32	4	>64	>64	0.8	MBIC [14]: 64 µg/mL; MBIC [15]: 4 µg/mL; MBIC [28]: >64 µg/mL; MBIC [16]: 8 µg/mL; MBIC [17]: 32 µg/mL; MBIC [18]: 4 µg/mL; MBIC [19]: 8 µg/mL; MBIC [20]: 64 µg/mL; MBIC [21]: >64 µg/mL; MBIC [22]: 32 µg/mL; MBIC [23]: 8 µg/mL; MBIC ([24]; Ec): 32 µg/mL; MBIC ([25]; Sau): 4 µg/mL
KIVIRIILQVIK-NH2 [Peptide 3015, KIVIRIILQVIK]	64	>64	>64	64	64	>64	16	>64	32	64	64	>64	>64	>64	>64	64	64	64	>64	−3.8	MBIC [14]: >64 µg/mL; MBIC [15]: 16 µg/mL; MBIC [28]: 16 µg/mL; MBIC [16]: 1 µg/mL; MBIC [17]: 32 µg/mL; MBIC [18]: 2 µg/mL; MBIC [19]: 8 µg/mL; MBIC [20]: >64 µg/mL; MBIC [21]: 4 µg/mL; MBIC [22]: 64 µg/mL; MBIC [23]: 4 µg/mL; MBIC ([24]; Ec): 64 µg/mL; MBIC ([25]; Sau): 64 µg/mL
LAGLIVKWAGVR-NH2 [Peptide 3017, LAGLIVKWAGVR]	>64	>64	>64	>64	>64	>64	>64	32	>64	>64	64	>64	>64	>64	>64	>64	4	>64	>64	5.9	MBIC [14]: >64 µg/mL; MBIC [15]: 32 µg/mL; MBIC [28]: >64 µg/mL; MBIC [16]: >64 µg/mL; MBIC [17]: >64 µg/mL; MBIC [18]: >64 µg/mL; MBIC [19]: 64 µg/mL; MBIC [20]: >64 µg/mL; MBIC [21]: >64 µg/mL; MBIC [22]: >64 µg/mL; MBIC [23]: 16 µg/mL; MBIC ([24]; Ec): >64 µg/mL; MBIC ([25]; Sau): 4 µg/mL
VIKWLLKILRAI-NH2 [Peptide 3001, VIKWLLKILRAI]	–	–	–	–	–	–	–	–	–	–	–	4	–	2	–	2	<1	1	2	64.4	–
VLKIKVKIWVVK-NH2 [Peptide 3007, VLKIKVKIWVVK]	–	–	–	–	–	–	–	–	–	–	–	–	–	–	–	–	–	–	–	2	MIC E. coli ([12]; planktonic cells, Table 20): 8 µg/mL; MIC S. aureus ([13]; planktonic cells, Table 20): 16 µg/mL; MBIC E. coli ([24]; biofilms, Table 20): 4 µg/mL; MBIC S. aureus ([25]; biofilms, Table 20): 2 µg/mL; MIC (μM) MHB [26, 30]: 16 µM; MIC (μM) TSB with 1% Glucose [26, 31]: >64 µM
VLQIKKVLRLLL-NH2 [Peptide 3011, VLQIKKVLRLLL]	–	–	–	–	–	–	–	–	–	–	–	–	–	–	–	–	–	–	–	15.7	MIC E. coli ([12]; planktonic cells, Table 20): 8 µg/mL; MIC S. aureus ([13]; planktonic cells, Table 20): 64 µg/mL; MBIC E. coli ([24]; biofilms, Table 20): 4 µg/mL; MBIC S. aureus ([25]; biofilms, Table 20): 2 µg/mL; MIC (μM) MHB [26, 30]: 8 µM; MIC (μM) TSB with 1% Glucose [26, 31]: 16 µM
VQRIIWLRVKIV-NH2 [Peptide 3023, VQRIIWLRVKIV]	–	–	–	–	–	–	–	–	–	–	–	2	–	4	–	1	2	16	>64	−3	–
WKKVQWLKRLLL-NH2 [Peptide 3003, WKKVQWLKRLLL]	–	–	–	–	–	–	–	–	–	–	–	4	–	16	–	2	1	4	16	22.5	–
WQGWAKIWVVRI-NH2 [Peptide 3019, WQGWAKIWVVRI]	–	–	–	–	–	–	–	–	–	–	–	4	–	4	–	2	2	8	32	−3.1	–
WVGVIIKWGLKL-NH2 [Peptide 3018, WVGVIIKWGLKL]	–	–	–	–	–	–	–	–	–	–	–	4	–	2	–	2	1	2	4	−0.3	–

From patent US20210138025A1, “CATIONIC PEPTIDES WITH IMMUNOMODULATORY AND/OR ANTI-BIOFILM ACTIVITIES” (priority 2018, published 2021)
